# Assay: Adsorption of drugs: recovery from supernatant by ESI-MS after incubation on glass, coated or uncoated polystyrene
# Type: physicochemical
# Settings: 100 nM drug, FIG. 4, samples stored in glass vials up to 3 days
# Procedure: Different concentrations of the drugs were dissolved in 2 ml H2O from a stock solution of 0.5 mM in 50% acetonitrile/50% H2O, and added to coated or uncoated polystyrene containers (2 mL solution added to each circular container of diameter 33 mm) as well as glass containers acting as reference material. Drug concentrations up to 250 nM were investigated. At different time points 250 μL of supernatant was sampled for analysis. […] The samples were analyzed by ESI-MS using 50% H2O/50% MeOH/0.1% acetic acid running buffer (0.1 mL/min).
# The effectiveness of the low-binding Bz+NHS-PEG coatings were probed by extended incubation of coated and uncoated polystyrene in 100 nM solutions of drugs spanning a wide range of hydrophobicity. Glass surfaces were included as reference to the polystyrene. The supernanants of the incubation solutions were sampled at different time points, and the drug concentrations determined by electrospray ionization mass spectrometry (ESI-MS) after addition of an internal standard.
# The recovery was calculated as the ratio of the drug concentration in the supernatant to the initially added drug concentration.
structure (smiles),measurement,value
CCCCc1oc2ccccc2c1C(=O)c1cc(I)c(OCCN(CC)CC)c(I)c1 [amiodarone],adsorption on glass surface,large adsorption even on the glass surface

# From patent US10519339B2, “Method for applying a coating to a polymeric substrate” (Sophion Bioscience A/S, priority 2012, dated 2019)
